Results taken from patent US7033996B2, “Method for the treatment of vitamin D related disease” (University of Medicine & Dentistry of New Jersey, priority 2001, dated 2006).
Entries after “also recorded” stand apart in the source; their conditions may differ.

What was measured:
[1] = system: C/EBPβ mRNA; assay: Time course of mRNA induction by Northern blot in UMR osteoblastic cells; format: cell-based; conditions: time course 0–24 h
[2] = system: 24(OH)ase mRNA; assay: as above; format: cell-based; conditions: time course 0–24 h
[3] = system: C/EBPβ protein; assay: Western blot of C/EBPβ protein in primary murine osteoblasts; format: cell-based
Description: Induction of C/EBPβ protein is examined by Western blot using nuclear extracts (antibody from Santa Cruz).

[4] = system: C/EBPβ; assay: Northern analysis verifying C/EBPβ induction in kidney and osteoblastic cells; format: cell-based
[5] = system: rat 24(OH)ase promoter; assay: 1,25(OH)2D3 induced 24(OH)ase promoter transcription with cotransfected C/EBPβ; conditions: COS cells cotransfected with hVDR and C/EBPβ, 1,25(OH)2D3 for 24 h
[6] = system: hVDR promoter; assay: PKA mediated hVDR promoter (-1500/+60) luciferase transcription with cotransfected C/EBPβ; format: cell-based, human; conditions: JEG cells, 2 μg VDR promoter, 1 μg PKA expression vector, 5 μg C/EBPβ
Description: FIG. 2 is an illustration of C/EBPβ enhancement of PKA mediated transcriptional activation of hVDR. 2 μg of the VDR promoter (−1500/+60) cotransfected in JEG cells with 1 μg of PKA expression vector in the presence or absence of 5 μg C/EBPβ.
cAMP or PTH induced enhancement of 24(OH)ase transcription is due at least in part to an upregulation of VDR. Since two putative C/EBPβ sites have been reported in the hVDR promoter (at −1490 and at −920; 143) the determination of the effect of C/EBPβ on VDR promoter activity is important. We have isolated the hVDR promoter fragment −1500/+60 by PCR and ligated it into the PGL-2 luciferase vector and found in our studies that C/EBPβ enhances PKA mediated transcription of the VDR (FIG. 2).

| Molecule | first significant induction of C/EBPβ mRNA after treatment [1] [h] | first significant induction of 24(OH)ase mRNA after treatment [2] [h] | induction of C/EBPβ protein by Western blot [3] | induction of C/EBPβ by Northern analysis [4] | effect of C/EBPβ on 1,25(OH)2D3 induced 24(OH)ase transcription [5] | effect of C/EBPβ on PKA mediated transcription of the VDR [6] |
| --- | --- | --- | --- | --- | --- | --- |
| C=C1/C(=C\C=C2/CCC[C@]3(C)[C@@H]([C@H](C)CCCC(C)(C)O)CC[C@@H]23)C[C@@H](O)C[C@@H]1O [1,25(OH)2D3, 1,25-dihydroxyvitamin D3] | 3 | 9 | induction | induction | – | – |
| C/EBPβ: CCAATT enhancer binding protein β, a transcription factor, supplied by pMEX C/EBPβ expression vector (protein, listed as Homo sapiens) APAPAPASSGQHHDFLSDLFSDDYGGKNCKKPAEYGYVSLGRLGAAKGAHPPPPPPPPPAELKAEPGFEPADCKRKEEAGAPGGGAGMAAGFPYALRAGSSGSLSTSSSSSPPGTPSPADAKAPPTACYAGAGPAPSQVKSKAKKTVRRERNNIAVRKSRDKAKMRNLETQHKVLELTAENERLQKKVEQLSRELSPEPLLASSGHC | – | – | – | – | markedly enhanced; also recorded: enhanced transcriptional response | enhances |
